Data set [1] is described as follows: Release kinetics from nested nanoparticles (fluorophore release, zeta potential over time). It is filed as physicochemical. Particulars: PBS pH 7.4, 37° C. Here is the method: FIGS. 4A-C. Examination of nested nanoparticle release kinetics. 4A. […] 4B. […] 4C.
Fluorophore release was determined according to a previously published procedure (Woodrow et al., 2009). Absorbance of bodipy and rhodamine were detected using the Synergy H4 Hybrid Reader as described above. In a separate study, nanoparticles were centrifuged at predetermined timepoints, resuspended in water, and the surface charge determined via zeta potential analysis, as described above.

Data set [2] can be described thus: Finite Element modeling of release kinetics from nested nanoparticles. From the text: Due to the fact that the physico-chemical properties of the core and shell, as well as bodipy and rhodamine, are different, a computational method accounting for diffusivities and molecule partitioning was used to analyze release kinetics from nested nanoparticles. Use of the model helped determine that sequential release may be achieved and controlled not only by different diffusion properties in different phases, but also partitioning. […] The model estimated experimental release curves by using partitioning coefficients of 5.0×109 and 2.2×1011 for bodipy and rhodamine, respectively (FIG. 4a). The half-time of release of the maximum releasable material was estimated to be 15 h for the shell and 46 h for the core. The diffusivity of rhodamine inside the PLGA nanoparticle matrix was estimated to be 4×10^−10 cm2/s, which was approximately 104 times lower than that in water, while that of bodipy in the shell was reduced by only 5 times compared to that in water. […] This is illustrated in the distinct phases of dominant fluxes over time (FIG. 4b).
A Finite Element (FE) method was used to model drug diffusion. The model included partitioning conditions at the surfaces, in this case between the core and the surrounding fluid. Thus, aside from the incremental-iterative system of mass balance equations (Kojic et al., 2008; Ziemys et al., 2011; Kojic et al., 2011):
the partitioning condition was included ΔNs/ΔNf=ΔCs/Δf=P Here, M and K are element mass and diffusion matrices, ΔC represents nodal concentration increments, Q^ext and Q^tnt are external and internal nodal mass fluxes; ΔNs and ΔNf are number of molecules of solid and fluid (per FE node) passing during time step Δt, and ΔCs and ΔCf are the corresponding concentration changes at boundary nodes with partitioning property; P is partitioning coefficient; and i specifies the equilibrium iteration counter. The important material parameter in the above balance equation is the diffusion coefficient D entering the diffusion matrix K:
[formula] where NI, NJ are interpolation functions and V is element volume. […]

Data set [3] concerns MCF-7 breast tumor xenografts. Kind of data set: In vivo accumulation and release of nested nanoparticles in breast tumors. The protocol: MCF-7 cells (5×10^6) were inoculated in the mammary fat pads of 4- to 6-week-old female nu/nu mice. Mice were implanted with 17β-estradiol pellets subcutaneously. Nanoparticles were administered intravenously and at predetermined timepoints, the mouse was sacrificed and the tumor harvested. Tumor tissues were frozen and sectioned into 7 μm tissue slices using an HM 550 Cryostat (Thermo Fischer Scientific, Waltham, Mass., USA). Tissues were fixed and stained with 4% methanol-free paraformaldehyde for 20 min. Following fixation, samples were washed with PBS. Slides were mounted and tissues imaged using confocal microscopy as previously described. The presence of fluorescence over time, surface intensity plots, and area fraction of the tissue sections were examined using Nikon Elements v4.1 software. For area fraction analysis, the fluorescence emitted by bodipy and rhodamine was obtained from 4 sections from different regions of the tumor (n=3). A ratiometric percentage of area fractions of both fluorophores were extracted from the total area of the image.

Data set [4] in a line: Release of rapamycin and paclitaxel from nested nanoparticles. It is filed as physicochemical. The following applies: rapamycin in outer shell, paclitaxel in polymeric core. From the text:
FIG. 14. Nested nanoparticles containing both rapamycin and paclitaxel release drug in a time and sequential fashion.

The conditions of data set [5]: model parameter; from literature for rhodamine, approximated from literature for bodipy; cited from earlier work.
[6] abbreviates: initial timepoints leading up to 3 h, bodipy in QAβ-CD shell, rhodamine in PLGA core.

Consider `O=C(COc1ccc(/C=C/C2=[N+]3C(=Cc4ccc(-c5cccs5)n4[B-]3(F)F)C=C2)cc1)NCCCCCC(=O)ON1C(=O)CCC1=O` [bodipy], for which the “Time after which release plateaus” value in data set [1] is recorded as > 48 h. In addition, in data set [1] (by 6 h), the “Cumulative release from nested nanoparticles” value (“Cumulative release” below) is listed as 34%. Also, the “Cumulative release” value in data set [1] (by 12 h) was found to be 50%. Besides, the “Cumulative release” value in data set [1] (setting [6]) came out at 7%. For the same molecule, the “Reduction of diffusivity inside material compared to that in water” value in data set [2] (rhodamine in PLGA matrix, bodipy in shell) was determined as 5 times. In data set [3] (mouse, in vivo, iv), the “Area fraction of fluorophore in tumor” value is reported as “ratiometrically similar amounts”, the “Area fraction: amount of fluorophore in tumor” value was “decreased significantly” and the “Fluorophore in tumor tissue” value is “marked decrease”.
Regarding `CC(=O)O[C@H]1C(=O)[C@@]2(C)[C@H]([C@H](OC(=O)c3ccccc3)[C@]3(O)C[C@H](OC(=O)[C@H](O)[C@@H](NC(=O)c4ccccc4)c4ccccc4)C(C)=C1C3(C)C)[C@]1(OC(C)=O)CO[C@@H]1C[C@@H]2O` [paclitaxel], the “Release from nested nanoparticles” value in data set [4] was “slow and prolonged release”.
For the molecule Rhodamine, the “Cumulative release” value in data set [1] ("by this same timepoint" (12 h or 48 h, not clear)) is ~6%; in data set [1] (in 96 h), 34%; in data set [1] (setting [6]) it was 3%. Further, the “Time after which rhodamine flux overtook the flux of bodipy” value in data set [2] (fluxes of release from nested nanoparticles) is reported as > 24 h. Further, the “Diffusivity inside the PLGA nanoparticle matrix” value in data set [2] (model estimate) was 4×10^−10 cm2/s. For the same molecule, the “Area fraction of fluorophore in tumor” value in data set [3] (3 h after intravenous nested nanoparticles) is on record as “ratiometrically similar amounts”. In addition, the “Area fraction: amount of fluorophore in tumor” value in data set [3] (96 h after intravenous nested nanoparticles) is “increase”. The “Dwater (diffusivity in water)” value in data set [5] is listed as 4.10^−6 cm^2/s.

These data come from patent publication US10076509B2, “Nested particles and the use thereof for coordinated delvery of active agents” (Board of Regents, the University of Texas System, priority 2015, dated 2018).
